Experimental data: US8633325B2, “Method for making insect repellent composition” (E I du Pont de Nemours and Company, priority 2002, dated 2014)
Values joined by “and” are separate entries in the source; they are usually repeats but may differ in a detail not shown here. Identical values can stand only once.

What was measured:
[1] = test system: female Aedes aegypti mosquitoes; test: in vitro membrane repellency test, probing of blood-filled wells; assay type: in vivo; settings: for Mean percentage repellency as calculated from the ANOVA: versus IPA control
Experimental: (§1) Approximately 250 female Aedes aegypti mosquitoes were introduced into a chamber containing 5 wells, each covered by a Baudruche (animal intestine) membrane. Wells were filled with bovine blood, containing sodium citrate (to prevent clotting) and ATP (72 mg ATP disodium salt per 26 ml of blood), and heated to 37° C. A volume of 25 μl of isopropyl alcohol, containing one of the test specimens shown in Table 2, was applied to each membrane.
(§2) After 5 min, 4 day-old female mosquitoes were added to the chamber. The number of mosquitoes probing the membranes for each treatment was recorded at 2 min intervals over 20 min. Each datum represents the mean of three replicate experiments.
The dihydronepetalactone prepared in Example 4, Formula 4, was tested for repellency against Aedes aegypti mosquitoes essentially as described in Example 3. The experimental design is summarized in Table 6, and all data presented is from five replicate experiments.
(§3) Percentage repellency was calculated for each repellent treatment at each observation time using the following equation: %Repellency=100−[(T/C)×100] where: • T=the mean number of mosquitoes probing a treated well for that replicate at time tx • C=the mean number of mosquitoes probing the IPA control well at time tx The resulting percentages were then arcsine transformed and an ANOVA was conducted using the calculated repellency from all five replicates. Multiple comparisons of means were conducted using the Student-Newman-Keuls test. The mean arcsines from ANOVA were then converted back into percentages.

[2] = test system: stable flies (Stomoxys calcitrans); test: in vitro membrane repellency test against stable flies; assay type: in vivo; settings: 1% (w/v); for Mean Number of Landings (SEM): 20 minute test; for Mean Number of Landings (SEM) / Mean percentage repellency as calculated from the ANOVA: five replicates; for Mean percentage repellency as calculated from the ANOVA: versus IPA control
Experimental: as §1, §2, §3
DHN derived from hydrogenation of trans,cis-nepetalactone (consisting principally of 1S,9S,5R,6R-5,9-dimethyl-3-20 oxabicyclo[4.3.0]nonan-2-one; Formula 4), designated “Experimental Sample #1”, and the mixture of dihydronepetalactones prepared according to Example 2 (designated Experimental Sample #2; mDHN), were tested for repellency against Stomoxys calcitrans, essentially as described in Example 3. The DHN used here differed from that prepared in Example 4 in that it was derived from hydrogenation (using a Pd/SrCO3 catalyst) of trans,cis-nepetalactone crystallized from commercial oil (Berjé, NJ). In these experiments, an additional positive control compound was included, namely p-menthane-3,8-diol (PMD), obtained from Takasago International Corp. (USA), Rockleigh, N.J. The experimental design is summarized in Table 10, and all data presented is an average of five replicate experiments.

[3] = test system: unfed adult female A. albimanus; test: in vitro membrane repellency test against anopheles mosquitoes; assay type: in vivo, Anopheles albimanus; settings: 1% (w/v); for Mean Number of Probes (SEM): 20 minute test; for Mean Number of Probes (SEM) / Mean percentage repellency as calculated from the ANOVA: five replicates; for Mean percentage repellency as calculated from the ANOVA: versus IPA control
Experimental: as §1, §2, §3
DHN derived from hydrogenation of trans,cis-nepetalactone (consisting principally of 1S,9S,5R,6R-5,9-dimethyl-3-oxabicyclo[4.3.0]nonan-2-one; Formula 4) designated “Experimental Sample #1”, and the mixture of dihydronepetalactones prepared according to Example 2 (designated as “Experimental Sample #2”; mDHN) were tested for repellency against one hundred unfed adult female A. albimanus, essentially as described in Example 3. The DHN used here differed from that prepared in Example 4 in that it was derived from hydrogenation (using a Pd/SrCO3 catalyst) of trans,cis-nepetalactone crystallized from commercial oil (Berjé, Bloomfield, N.J.). PMD was again included as a further control. The experimental design is summarized in Table 13, and all data presented is the average of five replicate experiments.

[4] = test system: deer tick Ixodes scapularis; test: tick repellency on forearms of human volunteers; assay type: in vivo; settings: for statistical comparison of protection times (ANOVA): 30% (w/v); for Mean complete protection time (SEM): 30% (w/v) in isopropanol, 25 μl topically on 4 cm circle
Experimental: A volume of 25 μl of each compound (30% (w/v) in isopropanol) was applied within 4 cm diameter circles drawn on the left forearms of six male human volunteers. Each volunteer had two repellents applied individually within two circles on this forearm; a single 4 cm diameter circle drawn on the other arm was left untreated to act as a control for tick attractiveness. Laboratory-reared unfed nymphs of the deer tick Ixodes scapularis were brought within 1 mm of the untreated circles on cotton buds (Q-tip®). If normal questing behavior was observed, and/or the insect crawled onto the untreated area, it was deemed qualified and then presented to a treated area. A qualified tick which quested at or crawled onto the treated area within 60 s was recorded as having not been repelled. […] Additionally, a qualified tick that crawled onto the treated area but fell off within an additional 60 s was recorded as repelled. Each volunteer had 5 qualified ticks offered to each treated circle at approximately hourly intervals. Exposures continued until 3 out of any group of 5 offered ticks were deemed ‘attracted’. The first non-repelled tick was defined as the first attracted tick which was followed by a second attracted tick within the same or following exposure period. The time of the first confirmed attracted tick was deemed to be the time at which complete repellency ‘broke down’ for that volunteer.

[5] = test system: female Anopheles albimanus mosquitoes; test: mosquito repellency on forearms of human volunteers (test cage); assay type: in vivo; settings: for Mean complete protection time (h) (SEM): 1.0 ml on 250 cm^2 forearm
Experimental: The DHN derived from hydrogenation of trans,cis-nepetalactone (consisting principally of 1S,9S,5R,6R-5,9-dimethyl-3-oxabicyclo[4.3.0]nonan-2-one; Formula 4), prepared as in Example 7, and the mixture of dihydronepetalactones prepared according to Example 2, were tested for repellency against A. albimanus, with DEET included in the test as a positive control, using adult human volunteers. Test cages (2×2×2 feet) with two sleeved entry ports on each of two opposite sides were used, with a hand rest in the center. The sides and top were screened and the base was equipped with a mirror to facilitate observations. Two hundred adult female mosquitoes, which had never received a blood meal and which had been deprived of their normal diet of 10% sucrose 24 h prior to use, were released into the test cage. Each volunteer was pre-qualified as attractive through having 10 insects land on their untreated forearms within 30 s of insertion into the cage.
A volume of 1.0 ml of each compound (either 5% or 10% (w/v) in isopropanol) was applied to 250 cm^2 areas on the forearms of six male human volunteers, the remainder of the limbs having been made inaccessible to insects. Each volunteer had different repellents applied individually onto each forearm. After allowing the applied repellents to dry for 30 min, the forearms were placed into the test cage for 5 min periods at 30 min intervals, and the number of mosquitoes probing or biting during each exposure period recorded. Breakdown of repellency was recorded for each repellent on each volunteer. Breakdown was defined as the time at which the first confirmed bite occurred; the first confirmed bite was defined as a bite which was followed by a second bite either within the same or the next exposure period. The data is presented in Table 17 as mean complete protection time.

[6] = test system: Monomorium destructor ants; settings: after 25 seconds of exposure to vapors; cited from earlier work
[7] = 1% (w/v), 20 minute observation period, Example 5, five replicates
[8] = 1% (w/v), Example 5, five replicates

Structure (SMILES) | Mean Number of Probes (SEM) [1, 7] | time until mosquito probing initiated (probing density over time, FIG. 9) ([1]; 1% (w/v), Example 5) [min] | Mean Time (min) (SEM) to "First probe" [1, 8] | Mean percentage repellency as calculated from the ANOVA [1, 8] [%] | repellency comparison between treatments (ANOVA) [2] | Mean Number of Landings (SEM) [2] | Mean percentage repellency as calculated from the ANOVA [2] [%] | repellency comparison between treatments (ANOVA) [3] | Mean Number of Probes (SEM) [3] | Mean percentage repellency as calculated from the ANOVA [3] [%] | statistical comparison of protection times (ANOVA) [4] | Mean complete protection time (SEM) [4] | Mean complete protection time (h) (SEM) ([5]; 5% (w/v) in isopropanol) | Mean complete protection time (h) (SEM) ([5]; 10% (w/v) in isopropanol) | other results
CCN(CC)C(=O)c1cccc(C)c1 [DEET, N,N-diethyl-m-toluamide] | 4.8 (3.2) | 6 | 14.8 min and 14.8 (3.2) min | 92.4 | performed statistically equally well | 17.8 (4.96) | 55.5 | statistically equal in efficacy | 50.4 (13.01) | 13.3 | statistically indistinguishable in the longevity of their repellency | 124 min and 124.0 (69.95) min | 4.0 (0.5) h | 6.2 (0.63) h | Mean Time (min) (SEM) to "First probe" ([1]; 1% (w/v) in isopropyl alcohol, 25 μl on membrane, Example 3, three replicates): 12 min and 12.0 (0.0) min; Mean Number of Probes (SEM) ([1]; 1% (w/v), over 20 min, Example 3, three replicates): 4.55 and 4.55 (0.29)
C[C@H]1COC(=O)[C@@H]2[C@@H]1CC[C@@H]2C [DHN, (1S,9S,5R,6R)-5,9-dimethyl-3-oxabicyclo[4.3.0]nonan-2-one] | 4.0 (2.16) | 10 | 16.0 (2.09) min | 96.1 | performed statistically equally well | 21.2 (3.35) | 43.2 | statistically equal to DEET | 38.0 (9.71) | 32.9 | statistically indistinguishable in the longevity of their repellency | 109 min and 109.0 (58.64) min | 1.8 (0.12) h | 3.5 h and 3.5 (0.29) h | Mean Number of Probes (SEM) ([1]; 0.2% (w/v), 20 minute observation period, Example 5, five replicates): 23.2 (5.97); Mean Time (min) (SEM) to "First probe" ([1]; 0.2% (w/v), Example 5, five replicates): 8.4 (1.16) min; Mean Time (min) (SEM) to "First probe" ([1]; 0.2% (w/v), Example 5, five replicates, listed as dihydronepetalactone): 8.4 min; Mean Number of Probes (SEM) ([1]; 0.5% (w/v), 20 minute observation period, Example 5, five replicates): 16.2 (5.49); Mean Time (min) (SEM) to "First probe" ([1]; 0.5% (w/v), Example 5, five replicates): 9.6 (2.48) min; Mean Time (min) (SEM) to "First probe" ([1]; 0.5% (w/v), Example 5, five replicates, listed as dihydronepetalactone): 9.6 min; Mean percentage repellency as calculated from the ANOVA ([1]; 0.5% (w/v), Example 5): 66.7%; repellency rank and statistical comparison with 1% DEET ([1]; 1% (w/v), Example 5, ANOVA, Student-Newman-Keuls): ranked first in repellency, and was statistically indistinguishable from 1% DEET; Mean Time (min) (SEM) to "First probe" ([1]; 1% (w/v), Example 5, five replicates, listed as Dihydronepetalactone): approximately 16 min; statistical comparison of protection times (ANOVA) ([5]; 5% and 10% (w/v)): provided lesser protection times
CC1CCC(C(C)(C)O)C(O)C1 (centres unmarked) [PMD, p-menthane-3,8-diol] | – | – | – | – | – | 33.6 (9.21) | 4.7 | statistically equal in efficacy | 47.2 (8.57) | 11.5 | – | – | – | – | time after which compound became ineffective in repelling landings [2]: 6 min
CC1COC(=O)C2C(C)CCC12 (centres unmarked) [pure dihydronepetalactone, dihydronepetalactone] | – | – | – | – | – | – | – | – | – | – | – | – | – | – | ants that ceased to feed [6]: 50-60%
